In patent US20190002942A1, “ANTIBIOTIC FIIRV 104/18 COMPLEX AND THE ISOLATED INDIVIDUAL FACTORS THEREOF” (Fondazione Istituto Insubrico di Ricerca per la Vita, priority 2015, published 2019):
In brackets after ≈: the same amount, converted by molar mass. Like-named read-outs stand apart in the source and are kept apart here.

What was measured:
[1] = system: L819 S. aureus Smith ATCC19636; assay: MIC, broth microdilution (CLSI); format: cell-based, Staphylococcus aureus
Protocol: (§1) Inocula are: 2-5×10^5 CFU/mL for Gram positive and Gram negative bacteria; 10^4 CFU/mL for Candida albicans.
(§2) The effect of 30% bovine serum is determined under the same experimental conditions.
(§3) Cultures are incubated at 35° C. in air. After 18-24 hours visual readings are performed and MICs determined. The MIC (Minimal Inhibitory Concentration) is defined as the lower concentration of antibiotic at which there is no visible growth. The strains used are clinical isolates or strains from American Type Culture Collection (ATCC).

L100 S. aureus ATCC 6538 = assay: MIC, broth microdilution (CLSI); format: cell-based; settings: Staphylococcus aureus, ATCC6538
Protocol: as §1, §2, §3

L1400 S. aureus MRSA = assay: MIC, broth microdilution (CLSI); format: cell-based; settings: Staphylococcus aureus
Protocol: as §1, §2, §3

L1577 S. epidermidis = assay: MIC, broth microdilution (CLSI); format: cell-based; settings: Staphylococcus epidermidis
Protocol: as §1, §2, §3

[2] = system: L1729 S. haemolyticus MDR; assay: MIC, broth microdilution (CLSI); format: cell-based; settings: Staphylococcus haemolyticus
Protocol: as §1, §2, §3

L1730 S. haemolyticus = assay: MIC, broth microdilution (CLSI); format: cell-based; settings: Staphylococcus haemolyticus
Protocol: as §1, §2, §3

L3030 A. baumannii = assay: MIC, broth microdilution (CLSI); format: cell-based; settings: Acinetobacter baumannii; L3030 A. baumannii; read-out: MIC
Protocol: as §1, §2, §3

L3294 M. catarrhalis = assay: MIC, broth microdilution (CLSI); format: cell-based; settings: Moraxella catarrhalis
Protocol: as §1, §2, §3

L44 S. pneumoniae = assay: MIC, broth microdilution (CLSI); format: cell-based; settings: Streptococcus pneumoniae
Protocol: as §1, §2, §3

L47 E. coli, SKF 12140 = assay: MIC, broth microdilution (CLSI); format: cell-based; settings: Escherichia coli
Protocol: as §1, §2, §3

L49 S. pyogenes C203 = assay: MIC, broth microdilution (CLSI); format: cell-based; settings: Streptococcus pyogenes
Protocol: as §1, §2, §3

L559 E. faecalis = assay: MIC, broth microdilution (CLSI); format: cell-based; settings: Enterococcus faecalis
Protocol: as §1, §2, §3

L568 E. faecium = assay: MIC, broth microdilution (CLSI); format: cell-based; settings: Enterococcus faecium
Protocol: as §1, §2, §3

L569 E. faecium VanA = assay: MIC, broth microdilution (CLSI); format: cell-based, Enterococcus faecium
Protocol: as §1, §2, §3

L560 E. faecalis VanA = assay: MIC, broth microdilution (CLSI); format: cell-based, Enterococcus faecalis
Protocol: as §1, §2, §3

L2048 B. cenocepacia = assay: MIC, broth microdilution (CLSI); format: cell-based; settings: Burkholderia cenocepacia; L2048 B. cenocepacia; read-out: MIC
Protocol: (§4) Antimicrobial activity of the antibiotic FIIRV 104/18 complex is determined by the broth microdilution method according to the procedures published by the Clinical and Laboratory Standards Institute (CLSI), formerly the National Committee for Clinical Laboratory Standards (NCCLS) (document M07-A9). Inocula are: 2-5×10^5 CFU/mL for Gram positive and Gram negative bacteria; 10^4 CFU/mL for Candida albicans.
(§5) The media used are: cation adjusted Mueller Hinton broth (CAMHB) for Staphylococci, Enterococci, Moraxella catarrhalis, Escherichia coli; Todd Hewitt broth (THB) for Streptococci; RPMI 1640 Medium for C. albicans. The effect of 30% bovine serum is determined under the same experimental conditions.
(§6) Cultures are incubated at 35° C. in air. After 18-24 hours visual readings are performed and MICs determined. The MIC (Minimal Inhibitory Concentration) is defined as the lower concentration of antibiotic at which there is no visible growth. The strains used are clinical isolates or strains from American Type Culture Collection (ATCC). Individual factors of antibiotic FIIRV 104/18 are dissolved in DMSO to obtain a 1000 μg/mL stock solution, and subsequently diluted in water to obtain working solution.

L145 C. albicans = assay: MIC, broth microdilution (CLSI); format: cell-based, Candida albicans; settings: Candida albicans; L145 C. albicans; RPMI; inoculum 10^4 CFU/mL; read-out: MIC
Protocol: as §4, §5, §6

[3] = system: Gram-positive susceptible, resistant and multi-resistant pathogenic bacteria; assay: Growth inhibition of Gram-positive bacteria (summary); format: cell-based; settings: Gram positive bacteria: Staphylococci incl. MRSA and MR coagulase-negative, Streptococci, Enterococci incl. VanA
Protocol: as §4, §5, §6

[4] = system: Staphylococcus aureus Smith ATCC 19636; assay: Murine Staphylococcus aureus infection model; format: in vivo, ICR mice
Protocol: Female ICR mice (Harlan, Italy) weighing 21-24 g are infected intraperitoneally (ip) with 5×10^4 cells of Staphylococcus aureus Smith ATCC 19636 in 0.5 mL of 5% gastric mucine. Antibiotic FIIRV 104/18 factor F795 is administered intravenously (iv) within 10-15 min after infection. […] In: Statistical Methods in Biological Assay, 524-530, (1952) Charles Griffin &Co., Ltd., London].

HeLa cells = assay: Inhibition of replication of HeLa cells; format: cell-based
[5] = Staphylococcus aureus, ATCC19636, L819 S. aureus Smith ATCC19636, CAMHB, read-out: MIC
[6] = Staphylococcus aureus, ATCC19636, L819 S. aureus Smith, +30% SB (bovine serum), read-out: MIC
[7] = L100 S. aureus ATCC 6538, CAMHB, read-out: MIC
[8] = L1400 S. aureus MRSA, CAMHB, read-out: MIC
[9] = L1577 S. epidermidis, CAMHB, read-out: MIC
[10] = L1729 S. haemolyticus MDR, CAMHB, read-out: MIC
[11] = L1730 S. haemolyticus, CAMHB, read-out: MIC
[12] = L3294 M. catarrhalis, CAMHB, read-out: MIC
[13] = L44 S. pneumoniae, THB, read-out: MIC
[14] = L47 E. coli, SKF 12140, CAMHB, read-out: MIC
[15] = L49 S. pyogenes C203, THB, read-out: MIC
[16] = L559 E. faecalis, CAMHB, read-out: MIC
[17] = L568 E. faecium, CAMHB, read-out: MIC
[18] = Enterococcus faecium, L569 E. faecium VanA, +30% SB (bovine serum), read-out: MIC
[19] = Enterococcus faecium, L569 E. faecium VanA, CAMHB, read-out: MIC
[20] = Enterococcus faecalis, L560 E. faecalis VanA, +30% SB (bovine serum), read-out: MIC
[21] = Enterococcus faecalis, L560 E. faecalis VanA, CAMHB, read-out: MIC

## COC(=O)c1c(C)cc2c(c1O)[C@]1(O)C(=O)c3cc4c(c(O)c3C(=O)[C@]1(OC)[C@H](O)C2)C(=O)C=C(N[C@H]1O[C@@H](C)[C@H](O[C@@H]2CCC(=O)[C@H](C)O2)[C@@H](O)[C@H]1OC)C4=O [F795, (6R,6aS,14aR)-methyl 11-[(2S,3R,4R,5R,6S)-4-hydroxy-3-methoxy-6-methyl-5-{[(2S,6S)-6-methyl-5-oxotetrahydro-2H-pyran-2-yl]oxy}tetrahydro-2H-pyran-2-ylamino]-1,6,8,14a-tetrahydroxy-6a-methoxy-3-methyl-7,9,12,14-tetraoxo-5,6,6a,7,9,12,14,14a-octahydrobenzo[a]tetracene-2-carboxylate]
[1]; [5]
  MIC: 0.002 µg/mL (≈ 0.00251 µM)
[1]; [6]
  MIC: 0.125 µg/mL (≈ 0.157 µM)
L100 S. aureus ATCC 6538; [7]
  MIC: 0.008 µg/mL (≈ 0.0101 µM)
L1400 S. aureus MRSA; [8]
  MIC: 0.015 µg/mL (≈ 0.0189 µM)
L1577 S. epidermidis; [9]
  MIC: 0.015 µg/mL (≈ 0.0189 µM)
[2]; [10]
  MIC: 0.015 µg/mL (≈ 0.0189 µM)
L1730 S. haemolyticus; [11]
  MIC: 0.015 µg/mL (≈ 0.0189 µM)
L3030 A. baumannii
  MIC: 16 µg/mL (≈ 20.1 µM)
L3294 M. catarrhalis; [12]
  MIC: 0.125 µg/mL (≈ 0.157 µM)
L44 S. pneumoniae; [13]
  MIC: 0.015 µg/mL (≈ 0.0189 µM)
L47 E. coli, SKF 12140; [14]
  MIC: > 128 µg/mL
L49 S. pyogenes C203; [15]
  MIC: 0.015 µg/mL (≈ 0.0189 µM)
L559 E. faecalis; [16]
  MIC: 0.25 µg/mL (≈ 0.314 µM)
L568 E. faecium; [17]
  MIC: 0.25 µg/mL (≈ 0.314 µM)
L569 E. faecium VanA; [18]
  MIC: 2 µg/mL (≈ 2.51 µM)
L569 E. faecium VanA; [19]
  MIC: 0.25 µg/mL (≈ 0.314 µM)
L560 E. faecalis VanA; [20]
  MIC: 0.5 µg/mL (≈ 0.628 µM)
L560 E. faecalis VanA; [21]
  MIC: 0.125 µg/mL (≈ 0.157 µM)
L2048 B. cenocepacia
  MIC: 32 µg/mL (≈ 40.2 µM)
L145 C. albicans
  MIC: > 128 µg/mL
[3]
  antibacterial activity (in words): very high antibacterial activity
[4]; ATCC19636, read-out: ED50 (50% effective dose), mice infected ip with S. aureus Smith ATCC 19636, iv within 10-15 min after infection, Spearman-Karber
  ED50: 0.8 mg/kg

## COC(=O)c1c(C)cc2c(c1O)[C@]1(O)C(=O)c3cc4c(c(O)c3C(=O)[C@]1(OC)[C@H](O)C2)C(=O)C=C(NC1O[C@@H](C)[C@H](OC2CC[C@H](O)C(C)O2)[C@@H](O)[C@H]1OC)C4=O (stereo partly drawn) [F797, (6R,6aS,14aR)-methyl 11-[(2S,3R,4R,5R,6S)-4-hydroxy-5-{[(2R,5S,6S)-5-hydroxy-6-methyltetrahydro-2H-pyran-2-yl]oxy}-3-methoxy-6-methyltetrahydro-2H-pyran-2-ylamino]-1,6,8,14a-tetrahydroxy-6a-methoxy-3-methyl-7,9,12,14-tetraoxo-5,6,6a,7,9,12,14,14a-octahydrobenzo[α]tetracene-2-carboxylate]
[1]; [5]
  MIC: 0.002 µg/mL (≈ 0.00251 µM)
[1]; [6]
  MIC: 0.125 µg/mL (≈ 0.157 µM)
L100 S. aureus ATCC 6538; [7]
  MIC: 0.008 µg/mL (≈ 0.01 µM)
L1400 S. aureus MRSA; [8]
  MIC: 0.015 µg/mL (≈ 0.0188 µM)
L1577 S. epidermidis; [9]
  MIC: 0.015 µg/mL (≈ 0.0188 µM)
[2]; [10]
  MIC: 0.015 µg/mL (≈ 0.0188 µM)
L1730 S. haemolyticus; [11]
  MIC: 0.015 µg/mL (≈ 0.0188 µM)
L3030 A. baumannii
  MIC: 16 µg/mL (≈ 20.1 µM)
L3294 M. catarrhalis; [12]
  MIC: 0.06 µg/mL (≈ 0.0752 µM)
L44 S. pneumoniae; [13]
  MIC: 0.004 µg/mL (≈ 0.00501 µM)
L47 E. coli, SKF 12140; [14]
  MIC: 64 µg/mL (≈ 80.2 µM)
L49 S. pyogenes C203; [15]
  MIC: 0.002 µg/mL (≈ 0.00251 µM)
L559 E. faecalis; [16]
  MIC: 0.25 µg/mL (≈ 0.313 µM)
L568 E. faecium; [17]
  MIC: 0.5 µg/mL (≈ 0.627 µM)
L569 E. faecium VanA; [18]
  MIC: 2 µg/mL (≈ 2.51 µM)
L569 E. faecium VanA; [19]
  MIC: 0.5 µg/mL (≈ 0.627 µM)
L560 E. faecalis VanA; [20]
  MIC: 0.5 µg/mL (≈ 0.627 µM)
L560 E. faecalis VanA; [21]
  MIC: 0.125 µg/mL (≈ 0.157 µM)
L2048 B. cenocepacia
  MIC: 16 µg/mL (≈ 20.1 µM)
L145 C. albicans
  MIC: > 128 µg/mL
[3]
  antibacterial activity (in words): very high antibacterial activity
HeLa cells; HeLa cells
  cytotoxicity (in words): moderate cytotoxicity
HeLa cells; Homo sapiens, HeLa
  IC50: 5 µg/mL (≈ 6.27 µM)

## CN[C@H](CC(C)C)C(=O)N[C@H]1C(=O)N[C@@H](CC(N)=O)C(=O)N[C@H]2C(=O)N[C@H]3C(=O)N[C@H](C(=O)N[C@H](C(=O)O)c4cc(O)cc(O)c4-c4cc3ccc4O)[C@H](O)c3ccc(c(Cl)c3)Oc3cc2cc(c3O[C@@H]2O[C@H](CO)[C@@H](O)[C@H](O)[C@H]2O[C@H]2C[C@](C)(N)[C@H](O)[C@H](C)O2)Oc2ccc(cc2Cl)[C@H]1O [V, vancomycin, reference compound]
[1]; L819 S. aureus Smith, +30% SB (bovine serum)
  MIC: 1 µg/mL (≈ 0.69 µM)
[1]; Staphylococcus aureus, ATCC19636
  MIC: 1 µg/mL (≈ 0.69 µM)
L100 S. aureus ATCC 6538
  MIC: 1 µg/mL (≈ 0.69 µM)
L1400 S. aureus MRSA; MRSA
  MIC: 1 µg/mL (≈ 0.69 µM)
L1577 S. epidermidis
  MIC: 2 µg/mL (≈ 1.38 µM)
[2]
  MIC: 2 µg/mL (≈ 1.38 µM)
L1730 S. haemolyticus
  MIC: 2 µg/mL (≈ 1.38 µM)
L3294 M. catarrhalis
  MIC: > 2 µg/mL
L44 S. pneumoniae
  MIC: 0.5 µg/mL (≈ 0.345 µM)
L47 E. coli, SKF 12140
  MIC: > 2 µg/mL
L49 S. pyogenes C203
  MIC: 0.5 µg/mL (≈ 0.345 µM)
L559 E. faecalis
  MIC: 1 µg/mL (≈ 0.69 µM)
L568 E. faecium
  MIC: 2 µg/mL (≈ 1.38 µM)
L569 E. faecium VanA; Enterococcus faecium
  MIC: > 128 µg/mL
L569 E. faecium VanA; L569 E. faecium VanA, +30% SB (bovine serum)
  MIC: >128 µg/mL
L560 E. faecalis VanA; Enterococcus faecalis
  MIC: > 128 µg/mL
L560 E. faecalis VanA; L560 E. faecalis VanA, +30% SB (bovine serum)
  MIC: >128 µg/mL
[4]; ATCC19636, read-out: ED50 (50% effective dose)
  ED50: 0.93 mg/kg
